Reference: publication PMC9525273 (Nature Communications, 2022)
Where “and” joins values, the source holds several entries; their conditions need not be identical. Identical values can stand only once. Entries after “also recorded” stand apart in the source; their conditions may differ. Like-named read-outs stand apart in the source and are kept apart here.

Experiments:
Assay type in all cases: cell-based, Plasmodium falciparum
NF54^WT parasites = test: microbe, parasite or virus in culture; settings: for FC (IC50) / FC (IC90): NF54WT, reference line
Description: (§1) For the NF54-based lines and Dd2-B2-PfATP4^G358S and its parent, assays were initiated with cultures containing predominantly ring-stage parasites with a parasitaemia of 0.3% and a haematocrit of 1%. All assays using NF54 were performed in culture media containing 10% O + human serum. The duration of the assays was 72 h and the concentration of DMSO was <0.5% (v/v). Serial dilutions of the test compounds were performed using a Tecan D300e digital dispenser, with parasite cultures added manually. Parasite survival was assessed by flow cytometry on an Intellicyt iQue3 (Essen Bioscience), with 1× SYBR Green I (Invitrogen) and 200 nM MitoTracker Deep Red FM (Invitrogen) used to stain the nucleus and the mitochondria in live parasites, respectively. The gating strategy used to quantify parasite survival, performed using FlowJo version 10 (FlowJo LLC.), is illustrated in Supplementary Fig. 9. IC50 and IC90 values were calculated by linear interpolation of the dose-response data.

NF54^CTL parasites = test: P. falciparum proliferation assay (72 h, flow cytometry, SYBR Green I/MitoTracker); settings: for FC (IC50) / FC (IC90): NF54CTL compared to NF54WT
Description: as §1

[1] = system: parasite lines with a G358S mutation in PfATP4; test: P. falciparum proliferation assays, statements on all lines with the G358S mutation; settings: G358S lines vs PfATP4 wild-type controls
Description: as §1, with “Two types of parasite proliferation assays were employed in this study, with both yielding highly consistent results. For” for “For”
For experiments with all other parasites, the effects of compounds of interest on parasite proliferation was measured in 96-well plates containing serial dilutions of the compounds in culture medium, with a fluorescent DNA-intercalating dye used to detect surviving parasites. The assays were initiated with erythrocytes infected with predominantly ring-stage parasites, and the starting parasitaemia and haematocrit were both 1%. […] Fluorescence was measured using a FLUOstar OPTIMA plate reader (BMG LABTECH), with OPTIMA version 2.20R2 and MARS Data Analysis Software version 3.01 R2 (BMG LABTECH).

NF54^G358S-1 parasites = test: P. falciparum proliferation assay (72 h, flow cytometry, SYBR Green I/MitoTracker); settings: for FC (IC50) / FC (IC90): NF54G358S-1 compared to NF54WT
Description: as §1

NF54^G358S-2 parasites = test: as above; settings: for FC (IC50) / FC (IC90): NF54G358S-2 compared to NF54WT
Description: as §1

[2] = NF54WT parasites, individual experiments, read-out: IC50 values
[3] = NF54WT parasites, individual experiments, read-out: IC90 values
[4] = Plasmodium falciparum, NF54, NF54WT parasites, individual experiments, read-out: IC50 values
[5] = Plasmodium falciparum, NF54, NF54WT parasites, individual experiments, read-out: IC90 values
[6] = Plasmodium falciparum, NF54, NF54WT parasites, mean of the experiments, read-out: IC50 values, MEAN
[7] = Plasmodium falciparum, NF54, NF54WT parasites, mean of the experiments, read-out: IC90 values, MEAN
[8] = NF54CTL parasites, individual experiments, read-out: IC50 values
[9] = NF54CTL parasites, individual experiments, read-out: IC90 values
[10] = Plasmodium falciparum, NF54, NF54CTL parasites, individual experiments, read-out: IC50 values
[11] = Plasmodium falciparum, NF54, NF54CTL parasites, individual experiments, read-out: IC90 values
[12] = Plasmodium falciparum, NF54, NF54CTL parasites, mean of the experiments, read-out: IC50 values, MEAN
[13] = Plasmodium falciparum, NF54, NF54CTL parasites, mean of the experiments, read-out: IC90 values, MEAN
[14] = NF54G358S-1 parasites, individual experiments, read-out: IC50 values
[15] = NF54G358S-1 parasites, individual experiments, read-out: IC90 values
[16] = Plasmodium falciparum, NF54, NF54G358S-1 parasites, individual experiments, read-out: IC50 values
[17] = Plasmodium falciparum, NF54, NF54G358S-1 parasites, individual experiments, read-out: IC90 values
[18] = Plasmodium falciparum, NF54, NF54G358S-1 parasites, mean of the experiments, read-out: IC50 values, MEAN
[19] = Plasmodium falciparum, NF54, NF54G358S-1 parasites, mean of the experiments, read-out: IC90 values, MEAN
[20] = NF54G358S-2 parasites, individual experiments, read-out: IC50 values
[21] = NF54G358S-2 parasites, individual experiments, read-out: IC90 values
[22] = Plasmodium falciparum, NF54, NF54G358S-2 parasites, individual experiments, read-out: IC50 values
[23] = Plasmodium falciparum, NF54, NF54G358S-2 parasites, individual experiments, read-out: IC90 values
[24] = Plasmodium falciparum, NF54, NF54G358S-2 parasites, mean of the experiments, read-out: IC50 values, MEAN
[25] = Plasmodium falciparum, NF54, NF54G358S-2 parasites, mean of the experiments, read-out: IC90 values, MEAN

| Compound | IC50 (NF54^WT parasites; [2]) | IC90 (NF54^WT parasites; [3]) | FC (IC50) (NF54^WT parasites) [fold] | FC (IC90) (NF54^WT parasites) [fold] | IC50 (NF54^WT parasites; [4]) [nM] | IC90 (NF54^WT parasites; [5]) [nM] | IC50 (NF54^WT parasites; [6]) [nM] | IC90 (NF54^WT parasites; [7]) [nM] | FC (IC50) (NF54^CTL parasites) [fold] | FC (IC90) (NF54^CTL parasites) [fold] | IC50 (NF54^CTL parasites; [8]) | IC90 (NF54^CTL parasites; [9]) | IC50 (NF54^CTL parasites; [10]) [nM] | IC90 (NF54^CTL parasites; [11]) [nM] | IC50 (NF54^CTL parasites; [12]) [nM] | IC90 (NF54^CTL parasites; [13]) [nM] | effect of the G358S mutation in PfATP4 on parasite susceptibility [1] | FC (IC50) (NF54^G358S-1 parasites) [fold] | FC (IC90) (NF54^G358S-1 parasites) [fold] | IC50 (NF54^G358S-1 parasites; [14]) | other results |
| --- | --- | --- | --- | --- | --- | --- | --- | --- | --- | --- | --- | --- | --- | --- | --- | --- | --- | --- | --- | --- | --- |
| CC1(C)c2nc(-c3ccc(F)cc3)c(Nc3ccc(F)cc3)n2CCN1C(=O)CN [KAF156] | 6.9 nM and 7.1 nM and 5.4 nM | 14.7 nM and 12.9 nM and 12.4 nM and 9.88 nM and 13.6 nM and 9.68 nM | 1.0 | 1.0 | 7.2 | 17.6 | 6.7 | 13 | 0.7 | 0.8 | 5.1 nM and 4.4 nM and 4.5 nM and 5.9 nM and 4.7 nM | 13.8 nM and 9.19 nM and 9.36 nM and 8.54 nM and 9.44 nM and 9.66 nM | 5.5 | 12.6 | 4.9 | 10.4 | no impact; also recorded: no effect | – | – | – | IC50 (NF54^WT parasites; Plasmodium falciparum, NF54, NF54WT, 10% human serum, read-out: IC50 ± SEM): 6.7 ± 0.2 nM |
| COc1ccc2nc3cc(Cl)ccc3c(Nc3cc(CN4CCCC4)c(O)c(CN4CCCC4)c3)c2n1 [Pyronaridine] | 0.91 nM and 1.08 nM and 1.42 nM and 2.14 nM | 1.44 nM and 2.14 nM and 2.78 nM and 4.07 nM | 1.0 | 1.0 | – | – | 1.4 | 2.61 | 1.2 | 1.1 | 1.43 nM and 1.8 nM and 1.81 nM | 2.8 nM and 2.91 nM | 1.47 | 2.85 | 1.6 | 2.86 | no effect | 1.3 | 1.1 | 1.77 nM and 2.02 nM and 2.17 nM | IC90 (NF54^WT parasites; Plasmodium falciparum, NF54, NF54WT, 10% human serum, read-out: IC90 ± SEM): 2.6 ± 0.6 nM; IC90 (NF54^CTL parasites; Plasmodium falciparum, NF54, NF54CTL, 10% human serum, read-out: IC90 ± SEM): 2.9 ± 0.02 nM; IC90 (NF54^G358S-1 parasites; [15]): 2.9 nM and 3.07 nM and 3.12 nM; IC50 (NF54^G358S-1 parasites; [16]): 1.24 nM; IC90 (NF54^G358S-1 parasites; [17]): 2.64 nM; IC50 (NF54^G358S-1 parasites; [18]): 1.8 nM; IC90 (NF54^G358S-1 parasites; [19]): 2.93 nM; FC (IC50) (NF54^G358S-2 parasites): 1.2 fold; FC (IC90) (NF54^G358S-2 parasites): 1.1 fold; IC50 (NF54^G358S-2 parasites; [20]): 1.86 nM and 1.73 nM and 2.02 nM; IC90 (NF54^G358S-2 parasites; [21]): 2.89 nM and 2.85 nM and 2.91 nM; IC90 (NF54^G358S-2 parasites; Plasmodium falciparum, NF54, NF54G358S-2, 10% human serum, read-out: IC90 ± SEM): 2.8 ± 0.1 nM; IC50 (NF54^G358S-2 parasites; [22]): 1.25 nM; IC90 (NF54^G358S-2 parasites; [23]): 2.63 nM; IC50 (NF54^G358S-2 parasites; [24]): 1.7 nM; IC90 (NF54^G358S-2 parasites; [25]): 2.82 nM |
| Clc1ccc2c(N3CCN(CCCN4CCN(c5ccnc6cc(Cl)ccc56)CC4)CC3)ccnc2c1 [Piperaquine] | 22 nM and 14.7 nM and 19.4 nM | 29.8 nM and 27.5 nM and 28.8 nM | 1.0 | 1.0 | 22.7 | 30 | 19.7 | 29 | 0.9 | 1.2 | 20.9 nM and 14.5 nM and 11.8 nM | 37.3 nM and 28.1 nM and 26.3 nM | 21.9 | 45.9 | 17.3 | 34.4 | no effect | 0.9 | 1.1 | 22.2 nM and 14.8 nM and 12.9 nM | IC90 (NF54^G358S-1 parasites; [15]): 43.7 nM and 27.9 nM and 26.4 nM; IC50 (NF54^G358S-1 parasites; [16]): 20.8 nM; IC90 (NF54^G358S-1 parasites; [17]): 34.2 nM; IC50 (NF54^G358S-1 parasites; [18]): 17.7 nM; IC90 (NF54^G358S-1 parasites; [19]): 33 nM; FC (IC50) (NF54^G358S-2 parasites): 0.9 fold; FC (IC90) (NF54^G358S-2 parasites): 1.1 fold; IC50 (NF54^G358S-2 parasites; [20]): 24 nM and 13.5 nM and 13.3 nM; IC90 (NF54^G358S-2 parasites; [21]): 48.2 nM and 27.4 nM and 26.7 nM; IC50 (NF54^G358S-2 parasites; [22]): 21.3 nM; IC90 (NF54^G358S-2 parasites; [23]): 30.8 nM; IC50 (NF54^G358S-2 parasites; [24]): 18 nM; IC90 (NF54^G358S-2 parasites; [25]): 33.3 nM |
